Experimental data taken from patent publication US11116778B2, “Prodrugs of ALOX-15 inhibitors and methods of using the same” (EMPIRICO INC., priority 2019, dated 2021).

How the values were obtained:
alkaline phosphatase = target: T1, alkaline phosphatase (Bos taurus, UniProt P19111); assay: in vitro; type: in vitro ADME, Calf; settings: calf (bovine), pH 8.8
T1 construct: purchased EMD Millipore 524572
Description: (§1) To determine if there was effect of addition phosphatase to the phosphate, 30 units of alkaline phosphatase (EMD Millipore Phosphatase, Alkaline, Calf Intestine catalog number 524572) was added to compound 5 and the UV spectrum (210-600 nm) was measured before and after addition of phosphatase. The was a shift in the absorbance maximum from 250 to 260 nm. The ratio of 250/260 went from 0.924 to 1.067 after phosphatase treatment.
(§2) Phosphatase treatment was repeated with 0.1 unit of phosphatase (56 ug) and 0.6 mM compound 5 at a volume of 100 uL (100 mM Tris pH 8.8, 5 mM MgCl2) and monitored as function of time. […] A unit is defined as the amount that can hydrolyze 1 μmol/min of p-nitrophenyl phosphate (PNP). Meaning that 0.1 unit of enzyme was hydrolyzing 0.015 units of phosphate: a ˜6.6 fold decrease in activity relative to PNP.

[1] = target: T2, alkaline phosphatase (Phosphatase, Alkaline, Calf Intestine) (Bos taurus, UniProt P19111); assay: in vitro; type: in vitro ADME
T2 construct: purchased EMD Millipore 524572
Description: as §1, §2

[2] = Levels of compound 3 and compound 5 in rabbit nasal lavage and serum after nasal administration of compound 5; type: in vivo; settings: rabbits
Description: Six (6) female NZW rabbits were employed in this study. Rabbits were obtained from Covance (Denver Pa.). Rabbits were between approximately 10 and 12 months of age at the time of study start. At time point 0, all animals received 50 μL of solution containing rabbit IL4 (RND Systems/Biotechne) and human IL13 (PreproTech) at a concentration of 0.25 mg/mL each in 0.5×PBS containing 12.5 mg/mL BSA per nostril. This was administered intranasally via a venous catheter attached to a micropipette. The animal was positioned in a supine manner and the venous catheter inserted into the nostril. The volume was introduced into the nasal cavity and the same procedure was repeated with the other nostril.
At the 2, 4, and 6 hour time points, animals in Group 1 (n=3) received 0.2 mL of vehicle (0.9% saline) per nostril and the animals in Group 2 (n=3) received 0.2 mL of compound 5 (10 mM) in vehicle per nostril. The dosing of vehicle and compound 5 proceed as follows: The animal was positioned in a supine manner in a restraint bag and a mucosal atomization device (MAD) attached to the pre-filled tuberculin syringe was inserted into the nostril and introduced into the nasal cavity. The same procedure was repeated with the other nostril.
At the 8 hour time point, all the nostrils of all animals were lavaged with 1 mL of 0.9% saline per nostril and the resulting fluid collected. Intranasal lavages were performed as follows: The animals were held sternally in a restraint bag with the head over the edge of the table and the rear of the animal elevated higher than the head. A flexible venous catheter was inserted in the nostril until resistance was felt. The 1 mL of saline was introduced through the catheter into the nasal cavity. The nasal lavage returned from the nostril was collected via a funnel into a conical tube and the approximate volume recorded. This procedure was repeated for the other nostril. The lavage was stored at approximately −70° C. until analysis. Following (<10 minutes) the 8 hour time point lavage, blood was collected from all animals, processed to serum, and frozen at approximately −70° C. until analysis.
Nasal lavage and serum samples were analyzed for the levels of compound 3 and compound 5. Frozen tissue samples were weighed (20-120 mg) and placed into 2 mL CK14 homogenizing tubes (Bertin) and 500 μL of methanol containing 1 mM butylated hydroxy toluene (BHT) and 1 mM tris(2-carboxyethyl)phosphine (TCEP) was added. The tubes were placed in a Precellys 24 tissue homogenizer (Bertin) and run at 6000 rpm six times for 20 seconds with a 10 second pause between cycles. The tubes containing the homogenized tissue were then placed in a microfuge and centrifuged for 5′ at 14,000 rpm to pellet any insoluble material. Compound 3 was quantified using LC-MS/MS (QTrap5500, Applied Biosystems). Q1/Q3 Masses: 306.00/135.00 using a deschloro derivative of compound 3 (lacking chlorine at 4 position of pyrazole ring) as an internal standard. The Q1/Q3 Masses are 272.00/101.00 Da for the internal standard. Compound 3 was extracted using liquid/liquid extraction with methanol as a diluent. […] Compound 5 was quantified using LC-MS/MS (QTrap5500, Applied Biosystems). […] Compound 5 was detected in the lavage samples from Group 2 animals (rabbit 1, rabbit 2, rabbit 3) and ranged in average concentration from 0.016 uM-0.35 uM. […]

T2 sequence (P19111 20-506): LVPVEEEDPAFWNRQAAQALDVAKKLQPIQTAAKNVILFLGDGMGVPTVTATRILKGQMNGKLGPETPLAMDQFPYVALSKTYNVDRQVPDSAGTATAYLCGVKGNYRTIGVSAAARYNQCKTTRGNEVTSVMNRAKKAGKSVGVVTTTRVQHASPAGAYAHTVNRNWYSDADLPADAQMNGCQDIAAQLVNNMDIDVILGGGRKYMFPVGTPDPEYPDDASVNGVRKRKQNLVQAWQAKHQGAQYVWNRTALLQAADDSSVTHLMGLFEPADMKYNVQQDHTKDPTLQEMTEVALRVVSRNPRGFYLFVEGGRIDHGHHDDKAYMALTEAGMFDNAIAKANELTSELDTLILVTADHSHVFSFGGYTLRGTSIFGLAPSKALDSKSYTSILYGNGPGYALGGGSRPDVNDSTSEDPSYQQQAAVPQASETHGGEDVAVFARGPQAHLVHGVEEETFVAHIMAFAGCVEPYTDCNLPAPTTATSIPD
T1 sequence (P19111 20-506): as above

O=C(Nc1ccc(F)cc1Cl)c1nn(COP(=O)(O)O)c(Cl)c1Cl [compound 5, (4,5-dichloro-3-((2-chloro-4-fluorophenyl)carbamoyl)-1H-pyrazol-1-yl)methyl dihydrogen phosphate]
half-life at 0.6 mM (alkaline phosphatase): 2 min
decrease in phosphatase activity relative to PNP (p-nitrophenyl phosphate) ([1]; 0.1 unit of enzyme hydrolyzing 0.015 units of phosphate): ~6.6 fold
rate at which the phosphatase cleaved the phosphate ([1]; 0.1 unit phosphatase, 0.6 mM compound 5, 100 uL): 0.015 µmol/min
concentration at 8 h ([2]; female, NZW, rabbit, nasal lavage, other: intranasal (mucosal atomization device), 0.2 mL of 10 mM compound 5 per nostril at 2, 4, 6 hours, lavage at 8 hours, range over 3 rabbits, read-out: average concentration of compound 5 in nasal lavage (FIG. 8)): 16 to 350 nM
level in serum samples ([2]; intranasal compound 5 10 mM, blood after the 8 hour lavage): no quantifiable
conversion of compound 5 to compound 3 in nasal lavage (FIG. 8) ([2]; intranasal compound 5 10 mM, lavage at 8 hours): majority of compound 5 was converted to compound 3
